Test system: MDA-MB-231 complex spheroids, growth inhibition
Test: Anticancer human tumor MDA-MB-231 cell line growth inhibition [Asc];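 note: spheroids exposed to compounds for 7 days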
Conditions: for IC50: curve of first compound; for viability, T/C: stronger effect = lower value; active = viability on the fitted dose curve at most 10% of control; inactive = the rest
Summary of the method: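 Stromal components (HUVEC and hMSC) are co-assembled with the cancer cells into multicellular spheroids. Drugs are then added singly or paired, at concentrations falling by half-log increments from a clinically achievable maximum, capped at 10 microM without known Cmax.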

Cn1ncnc1[C@H]1c2n[nH]c(=O)c3cc(F)cc(c23)N[C@@H]1c1ccc(F)cc1 + Cc1c(S(C)(=O)=O)c(-c2cc(F)cc(N3CCN(c4ccc(NS(=O)(=O)c5ccc(NC(CCN6CCC(C(=O)OCCCP(=O)(O)O)CC6)CSc6ccccc6)c(S(=O)(=O)C(F)(F)F)c5)cc4)CC3)c2)c(-c2ccc(Cl)cc2)n1C(C)C
> 100 nM: IC50 (second compound 0.1 µM) | IC50 (second compound 0.316 µM) | IC50 (second compound 1 µM) | IC50 (second compound 3.16 µM) | IC50 (second compound 10 µM)
inactive: viability, T/C (second compound 0.1 µM, first compound 0.000316 µM) 104% | viability, T/C (second compound 0.1 µM, first compound 0.001 µM) 95.4% | viability, T/C (second compound 0.1 µM, first compound 0.00316 µM) 107% | viability, T/C (second compound 0.1 µM, first compound 0.01 µM) 92.3% | viability, T/C (second compound 0.1 µM, first compound 0.0316 µM) 87.8% | viability, T/C (second compound 0.1 µM, first compound 0.1 µM) 87.2% | viability, T/C (second compound 0.316 µM, first compound 0.000316 µM) 103% | viability, T/C (second compound 0.316 µM, first compound 0.001 µM) 105% | viability, T/C (second compound 0.316 µM, first compound 0.00316 µM) 95.9% | viability, T/C (second compound 0.316 µM, first compound 0.01 µM) 90.6% | viability, T/C (second compound 0.316 µM, first compound 0.0316 µM) 80.7% | viability, T/C (second compound 0.316 µM, first compound 0.1 µM) 81% | viability, T/C (second compound 1 µM, first compound 0.000316 µM) 101% | viability, T/C (second compound 1 µM, first compound 0.001 µM) 107% | viability, T/C (second compound 1 µM, first compound 0.00316 µM) 105% | viability, T/C (second compound 1 µM, first compound 0.01 µM) 89.5% | viability, T/C (second compound 1 µM, first compound 0.0316 µM) 82.3% | viability, T/C (second compound 1 µM, first compound 0.1 µM) 75.7% | viability, T/C (second compound 3.16 µM, first compound 0.000316 µM) 101% | viability, T/C (second compound 3.16 µM, first compound 0.001 µM) 95.5% | viability, T/C (second compound 3.16 µM, first compound 0.00316 µM) 82.2% | viability, T/C (second compound 3.16 µM, first compound 0.01 µM) 83.7% | viability, T/C (second compound 3.16 µM, first compound 0.0316 µM) 68.7% | viability, T/C (second compound 3.16 µM, first compound 0.1 µM) 63.1% | viability, T/C (second compound 10 µM, first compound 0.000316 µM) 115% | viability, T/C (second compound 10 µM, first compound 0.001 µM) 108% | viability, T/C (second compound 10 µM, first compound 0.00316 µM) 98.5% | viability, T/C (second compound 10 µM, first compound 0.01 µM) 91.3% | viability, T/C (second compound 10 µM, first compound 0.0316 µM) 74.4% | viability, T/C (second compound 10 µM, first compound 0.1 µM) 65%
